Measured values published in ChEMBL document CHEMBL1140847, “Spectroscopic and calorimetric studies on the DNA recognition of pyrrolo[2,1-c][1,4]benzodiazepine hybrids” (Bioorg Med Chem, 2009).
Calls of active or inactive are those of the source. The calls are words filed in the database; no cut-off is given here.

Legend:
[1] = Binding affinity to oligonucleotide duplex DNA D2b at drug-duplex molar ratio of 2:1 assessed as change in melting temperature by UV melting experiment
[2] = Binding affinity to oligonucleotide duplex DNA D6 at drug-duplex molar ratio of 2:1 assessed as change in melting temperature by UV melting experiment
[3] = Binding affinity to oligonucleotide duplex DNA D2a at 6.6 uM by circular dichroism
[4] = Binding affinity to oligonucleotide duplex DNA D5 at drug-duplex molar ratio of 2:1 assessed as change in melting temperature by UV melting experiment
[5] = Binding affinity to oligonucleotide duplex DNA D8 at drug-duplex molar ratio of 2:1 assessed as change in melting temperature by UV melting experiment
[6] = Binding affinity to oligonucleotide hairpin duplex DNA D2d by fluorescence titration experiment
[7] = Binding affinity to oligonucleotide hairpin duplex DNA D2d by isothermal titration calorimetry
[8] = Binding affinity to oligonucleotide duplex DNA D2c at drug-duplex molar ratio of 2:1 assessed as change in melting temperature by UV melting experiment
[9] = Binding affinity to oligonucleotide hairpin duplex DNA D2d at 26 uM by UV titration experiment
[10] = Binding affinity to oligonucleotide duplex DNA D1 at drug-duplex molar ratio of 2:1 assessed as change in melting temperature by UV melting experiment
[11] = Binding affinity to oligonucleotide duplex DNA D4 at drug-duplex molar ratio of 2:1 assessed as change in melting temperature by UV melting experiment
[12] = Binding affinity to oligonucleotide duplex DNA D2e at drug-duplex molar ratio of 2:1 assessed as change in melting temperature by UV melting experiment
[13] = Binding affinity to oligonucleotide duplex DNA D3 at drug-duplex molar ratio of 2:1 assessed as change in melting temperature by UV melting experiment
[14] = Binding affinity to oligonucleotide duplex DNA D2a at drug-duplex molar ratio of 2:1 assessed as change in melting temperature by UV melting experiment
[15] = Binding affinity to oligonucleotide duplex DNA D7 at drug-duplex molar ratio of 2:1 assessed as change in melting temperature by UV melting experiment
[16] = Binding affinity to oligonucleotide duplex DNA D2a at 10 uM by circular dichroism

Row | SMILES | ΔTm [1] [°C] | ΔTm [2] [°C] | Activity [3] | ΔTm [4] [°C] | ΔTm [5] [°C] | Ka [6] [×10⁶ /M] | Ka [7] [×10⁵ /M] | ΔTm [8] [°C] | Activity [9] | ΔTm [10] [°C] | ΔTm [11] [°C] | ΔTm [12] [°C] | ΔTm [13] [°C] | ΔTm [14] [°C] | ΔTm [15] [°C] | Activity [16]
1 | COc1cc2c(cc1OCCCN1CCN(CCN3C(=O)c4cccc5cccc(c45)C3=O)CC1)N=C[C@@H]1CCCN1C2=O | 34.3 | 37.3 | Active | 30.3 | 35 | 3.8 | 7.8 | 6.5 | Active | 9 | 36.8 | 35 | 39.5 | 34 | 31.5 | 
2 | COc1cc2c(cc1OCCCOc1ccc(-c3nc4ccc(N5CCN(C)CC5)cc4[nH]3)cc1)N=C[C@@H]1CCCN1C2=O | 39 | 34.5 |  | 32.5 | 0 | 5.6 | 8.9 | 9 | Active | 10 | 34.3 | 37 |  | 33 | 27 | Active
